Active and inactive are the calls of the source.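 The calls were made as follows: active = half-maximal concentration at most 10 µM from a sound curve fit, with response shifting 30% or more across doses; inactive = the rest.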
Molecular target: GTPase HRas (Homo sapiens) (UniProt P01112)
Assay: H-Ras act fluorescent GTP binding inhibition – biochemical, multiplex bead flow cytometry, round 1, selectivity assay for Cdc42 probe extension project, SAR follow-up (AID 588381)
Conditions: GST-H-Ras act beads, Bodipy-FL-GTP binding; for response, lower = inhibition: at 100 µM (top of the series)

GTPase HRas (Homo sapiens), sequence (P01112 whole entry, looked up): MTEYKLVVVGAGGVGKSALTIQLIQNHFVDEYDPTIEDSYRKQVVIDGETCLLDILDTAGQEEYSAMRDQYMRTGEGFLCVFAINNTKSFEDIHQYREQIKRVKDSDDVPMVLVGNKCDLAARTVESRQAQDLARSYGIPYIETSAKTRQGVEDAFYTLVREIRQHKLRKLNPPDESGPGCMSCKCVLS

Structure (SMILES)	response, lower = inhibition	EC50 [nM]
COc1ccc(C2CC(c3ccccc3)=NN2c2ccc(S(N)(=O)=O)cc2)cc1 (centres undefined)	inactive	
NS(=O)(=O)c1ccc(N2N=C(c3ccccc3)CC2c2ccccc2)cc1 (centres undefined)	inactive	
O=C(C#Cc1ccccc1)c1cccc([N+](=O)[O-])c1	inactive	
CC1(C)Cc2c(sc(NC(=S)NC(=O)c3ccccc3)c2C(=O)O)CO1		82
